Reference: the NIST ThermoML archive (doi:10.1021/je020189p)
“And” between values parts separate entries of the source, which are not always exact repeats. Identical values can stand only once. Numbers after ± are expanded uncertainties.

Conditions: Liquid

[Cl][Tb]([Cl])[Cl] [terbium trichloride]
Conditions	vapor or sublimation pressure
921 K	6.76e-05 ± 2.4e-05 kPa
931 K	0.0001 ± 3.5e-05 kPa
937 K	0.000135 ± 4.8e-05 kPa
942 K	0.000209 ± 7.3e-05 kPa
943 K	0.00017 ± 6e-05 kPa
946 K	0.000166 ± 5.8e-05 kPa
950 K	0.000204 ± 7.2e-05 kPa
953 K	0.000219 ± 7.9e-05 kPa
957 K	0.000331 ± 0.00012 kPa and 0.000245 ± 8.6e-05 kPa
961 K	0.000288 ± 0.0001 kPa
965 K	0.000302 ± 0.00011 kPa
967 K	0.000331 ± 0.00012 kPa
971 K	0.000501 ± 0.00018 kPa and 0.000372 ± 0.00013 kPa
975 K	0.000407 ± 0.00014 kPa
976 K	0.000331 ± 0.00012 kPa
979 K	0.000447 ± 0.00016 kPa and 0.000331 ± 0.00012 kPa
980 K	0.000501 ± 0.00018 kPa
984 K	0.000537 ± 0.00019 kPa
988 K	0.000832 ± 0.00029 kPa
990 K	0.000661 ± 0.00023 kPa
992 K	0.000501 ± 0.00018 kPa
994 K	0.000708 ± 0.00025 kPa and 0.000741 ± 0.00026 kPa
995 K	0.000501 ± 0.00018 kPa
998 K	0.000794 ± 0.00028 kPa
999 K	0.00107 ± 0.00038 kPa and 0.000912 ± 0.00032 kPa
1006 K	0.00105 ± 0.00037 kPa and 0.000741 ± 0.00026 kPa
1009 K	0.000741 ± 0.00026 kPa
1010 K	0.00123 ± 0.00043 kPa and 0.00115 ± 0.0004 kPa
1011 K	0.00148 ± 0.00052 kPa
1017 K	0.00132 ± 0.00046 kPa [middle of 4 runs]
1020 K	0.00158 ± 0.00056 kPa
1021 K	0.00191 ± 0.00067 kPa
1024 K	0.00166 ± 0.00059 kPa
1026 K	0.00178 ± 0.00062 kPa
1027 K	0.00123 ± 0.00045 kPa
1028 K	0.00123 ± 0.00044 kPa
1029 K	0.00209 ± 0.00074 kPa
1033 K	0.00257 ± 0.0009 kPa
1034 K	0.00214 ± 0.00075 kPa
1035 K	0.00148 ± 0.00052 kPa
1037 K	0.00251 ± 0.00088 kPa and 0.00158 ± 0.00056 kPa
1038 K	0.00257 ± 0.00091 kPa
1043 K	0.00263 ± 0.00092 kPa and 0.00191 ± 0.00067 kPa
1045 K	0.00355 ± 0.0012 kPa
1047 K	0.00331 ± 0.0012 kPa
1048 K	0.00209 ± 0.00075 kPa
1053 K	0.00447 ± 0.0016 kPa
1054 K	0.00355 ± 0.0013 kPa and 0.00245 ± 0.00088 kPa
1056 K	0.00372 ± 0.0013 kPa
1057 K	0.00417 ± 0.0015 kPa
1058 K	0.00263 ± 0.00095 kPa
1059 K	0.00389 ± 0.0014 kPa
1064 K	0.00575 ± 0.002 kPa
1065 K	0.00513 ± 0.0018 kPa
1067 K	0.00372 ± 0.0013 kPa
1071 K	0.00676 ± 0.0024 kPa and 0.00372 ± 0.0013 kPa
1072 K	0.00525 ± 0.0019 kPa
1073 K	0.00525 ± 0.0019 kPa
1075 K	0.00617 ± 0.0022 kPa
1081 K	0.00851 ± 0.003 kPa
1082 K	0.00537 ± 0.0019 kPa
1091 K	0.00851 ± 0.003 kPa
1092 K	0.0112 ± 0.0039 kPa
1093 K	0.00708 ± 0.0025 kPa
1102 K	0.0141 ± 0.0049 kPa
1105 K	0.00912 ± 0.0032 kPa
1117 K	0.0117 ± 0.0041 kPa

[Cl-].[Cl-].[Cl-].[Gd+3] [gadolinium(III) chloride]
Conditions	vapor or sublimation pressure
930 K	3.31e-05 ± 1e-05 kPa
952 K	6.76e-05 ± 2.1e-05 kPa
957 K	8.32e-05 ± 2.5e-05 kPa
958 K	6.31e-05 ± 1.9e-05 kPa
965 K	7.76e-05 ± 2.4e-05 kPa
970 K	0.000129 ± 3.9e-05 kPa
973 K	9.77e-05 ± 2.9e-05 kPa
983 K	0.000141 ± 4.3e-05 kPa and 0.000178 ± 5.4e-05 kPa
994 K	0.000195 ± 5.9e-05 kPa
996 K	0.000224 ± 6.8e-05 kPa
1002 K	0.000324 ± 9.7e-05 kPa
1004 K	0.000251 ± 7.6e-05 kPa
1011 K	0.000331 ± 0.0001 kPa
1015 K	0.000355 ± 0.00011 kPa
1022 K	0.000562 ± 0.00017 kPa
1023 K	0.000479 ± 0.00015 kPa
1024 K	0.00049 ± 0.00015 kPa
1042 K	0.000794 ± 0.00024 kPa
1044 K	0.001 ± 0.0003 kPa
1046 K	0.001 ± 0.0003 kPa
1052 K	0.00102 ± 0.00031 kPa
1054 K	0.00141 ± 0.00042 kPa
1061 K	0.00135 ± 0.00041 kPa
1062 K	0.00138 ± 0.00041 kPa
1071 K	0.00174 ± 0.00052 kPa
1076 K	0.00219 ± 0.00066 kPa
1082 K	0.00234 ± 0.0007 kPa
1086 K	0.00269 ± 0.00081 kPa
1090 K	0.00275 ± 0.00083 kPa
1091 K	0.00339 ± 0.001 kPa
1093 K	0.00302 ± 0.00091 kPa
1099 K	0.00339 ± 0.001 kPa
1103 K	0.00437 ± 0.0013 kPa
1107 K	0.00417 ± 0.0013 kPa
1113 K	0.00575 ± 0.0017 kPa
1116 K	0.00513 ± 0.0015 kPa
1117 K	0.00603 ± 0.0018 kPa
1120 K	0.00589 ± 0.0018 kPa and 0.00603 ± 0.0018 kPa
1126 K	0.00759 ± 0.0023 kPa and 0.00661 ± 0.002 kPa
1134 K	0.00871 ± 0.0026 kPa
1135 K	0.00794 ± 0.0024 kPa
1138 K	0.00977 ± 0.0029 kPa
1144 K	0.01 ± 0.003 kPa
1147 K	0.0129 ± 0.0039 kPa
1151 K	0.0126 ± 0.0038 kPa
1154 K	0.0132 ± 0.004 kPa
1156 K	0.0158 ± 0.0048 kPa
1165 K	0.0182 ± 0.0055 kPa
1170 K	0.0219 ± 0.0066 kPa
1177 K	0.024 ± 0.0072 kPa
1187 K	0.0324 ± 0.0097 kPa
1190 K	0.0316 ± 0.0095 kPa
1203 K	0.0407 ± 0.012 kPa
1213 K	0.0501 ± 0.015 kPa
